Measured values from EP2799533A1, “Protease and inhibitor containing water-soluble films” (Novozymes A/S, priority 2013, dated 2014).

Experiments:
Assay type in all cases: biochemical
Savinase = molecular target: T1, Savinase (Lederbergia lenta, UniProt P29600); experiment: Residual enzymatic activity of protease in water-soluble film after film production
T1 construct: purchased Novozymes A/S, Denmark
T1 sequence (P29600 1-269): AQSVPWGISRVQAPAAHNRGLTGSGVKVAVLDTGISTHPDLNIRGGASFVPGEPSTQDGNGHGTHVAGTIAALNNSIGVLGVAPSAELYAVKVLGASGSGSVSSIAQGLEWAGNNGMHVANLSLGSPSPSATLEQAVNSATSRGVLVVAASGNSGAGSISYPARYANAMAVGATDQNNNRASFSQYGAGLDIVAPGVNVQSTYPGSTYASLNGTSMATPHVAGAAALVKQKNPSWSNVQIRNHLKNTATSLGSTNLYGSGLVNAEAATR
Experimental: (§1) We prepared two different enzyme containing water-soluble films, as outlined in Table 1 below. The films were produced under normal film production conditions. Later, the films were analyzed to estimate the enzymatic activity remaining after the production process, i.e., the percentage of residual enzymatic activity in the final film product, as compared to the amount of enzyme added in the production process.
The protease used for preparing the films was Savinase (Novozymes A/S, Denmark), which was added to obtain a final concentration of 1.1 % wt active enzyme protein in both of the water-soluble films.
(§2) The protease inhibitor used was 4-formyl-phenyl-boronic acid (4-FPBA), which was added to obtain a final concentration of 0.5% wt in one of the water-soluble films.
(§3) Since the humidity of the samples was not controlled, some of the absolute values from the analysis are above 100%. However, all film samples were treated identically and analyzed at the same time, and therefore the relative improvement by using the protease inhibitor can be calculated. Table 1. The data are based on an average of three analyses of each film.

Stainzyme = experiment: Residual enzymatic activity of amylase in water-soluble film after film production
Experimental: as §1
The amylase used was Stainzyme (Novozymes A/S, Denmark), which was added to obtain a final concentration of 0.1 % wt active enzyme protein in both of the films.
as §2, §3

Mannaway = experiment: Residual enzymatic activity of mannanase in water-soluble film after film production; conditions: Mannanase (Mannaway, 0.03% wt) in film with Savinase protease; 0.5% wt 4-FPBA; vs. amount of enzyme added; average of three analyses; film without 4-FPBA: 1%
Experimental: as §1
The mannanase used was Mannaway (Novozymes A/S, Denmark), which was added to obtain a final concentration of 0.03% wt active enzyme protein in both of the films.
as §2, §3

O=Cc1ccc(B(O)O)cc1 [4-FPBA, 4-formyl-phenyl-boronic acid] was tested, and the “Residual activity in film made with 4-FPBA” value (“Residual activity” for short) (Savinase; Protease (Savinase, 1.1 % wt) in film also holding amylase and mannanase, 0.5% wt 4-FPBA, vs. amount of enzyme added, average of three analyses, film without 4-FPBA: 87%) was 93%, the “Relative improvement by using inhibitor” value (Savinase; Protease, film with 0.5% wt 4-FPBA vs. film without 4-FPBA) was 7% and the “Residual activity” value (Stainzyme; Amylase (Stainzyme, 0.1 % wt) in film with Savinase protease, 0.5% wt 4-FPBA, vs. amount of enzyme added, average of three analyses, humidity not controlled, values above 100%, film without 4-FPBA: 106%) was 114%. For the same compound, the “Relative improvement by using inhibitor” value (Stainzyme; Amylase, film with 0.5% wt 4-FPBA vs. film without 4-FPBA) was 8% and the “Residual activity” value (Mannaway) was 63%.
